Data as given in US8022050B2, “Compound for inhibiting TRPA1 function and use thereof” (Korea University Industry and Academic Collaboration …, priority 2008, dated 2011).

Experiments:
[1] = test system: inflammatory sensitization induced by carrageenan; assay: Sensitivity to thermal stimulation (avoidance time) in carrageenan-injected mice; format: in vivo; conditions: 10 μl of 0.1% carrageenan 3 h before, 10 μl of 1 mM substance into hind paw, FIG. 4
Protocol: Equal amount of AP18 (Biomol, USA), the TRPA1 specific inhibitor, was injected into the positive control. Avoidance time was measured by using thermal stimulator (Ugo basile plant test, Italy). Each group was composed of 5 mice and beam injection was performed four times, which were averaged.

[2] = test system: pain induced by cinnamaldehyde; assay: Acute hind paw licking/flicking behaviors in mice (cinnamaldehyde-induced pain, normal or inflammatory condition); format: in vivo; conditions: hind paw injection, 10 minutes, substance injected alone, FIG. 3a
Protocol: The time spent for the hind paw licking/flicking behaviors in mice were measured according to the method of Bandell M, et al. (Neuron 41:849-857, 2004) and Moqrich A, et al. (Science 307:1468-1472, 2005), for 10 minutes. • Control: non-treatment; • Experimental group 1. […] 300 μM of CA; • Experimental group 3.

SMILES	Sensitivity against thermal stimulation (avoidance time) [1]	Time spent for hind paw licking/flicking behaviors, substance alone [2]
CC(=C\c1ccc(Cl)cc1)/C(C)=N/O [AP18]	almost no effects	
O=CC=Cc1ccccc1 [cinnamaldehyde]		increased the time spent for the behaviors
